# Measured values: paper PMC8888861, “Inhibition of the NLRP3 Inflammasome Activation by Manoalide Ameliorates Experimental Autoimmune Encephalomyelitis Pathogenesis” (Frontiers in Cell and Developmental Biology, 2022)
# Molecular target: T1, NLRP3 (Mus musculus, UniProt Q8R4B8)
# T1 construct: endogenous NLRP3 in lysates of LPS-primed BMDMs
# Test: DARTS (pronase protection) in BMDM lysates at […]
# Type: cell-based
# T1 sequence (Q8R4B8 whole entry): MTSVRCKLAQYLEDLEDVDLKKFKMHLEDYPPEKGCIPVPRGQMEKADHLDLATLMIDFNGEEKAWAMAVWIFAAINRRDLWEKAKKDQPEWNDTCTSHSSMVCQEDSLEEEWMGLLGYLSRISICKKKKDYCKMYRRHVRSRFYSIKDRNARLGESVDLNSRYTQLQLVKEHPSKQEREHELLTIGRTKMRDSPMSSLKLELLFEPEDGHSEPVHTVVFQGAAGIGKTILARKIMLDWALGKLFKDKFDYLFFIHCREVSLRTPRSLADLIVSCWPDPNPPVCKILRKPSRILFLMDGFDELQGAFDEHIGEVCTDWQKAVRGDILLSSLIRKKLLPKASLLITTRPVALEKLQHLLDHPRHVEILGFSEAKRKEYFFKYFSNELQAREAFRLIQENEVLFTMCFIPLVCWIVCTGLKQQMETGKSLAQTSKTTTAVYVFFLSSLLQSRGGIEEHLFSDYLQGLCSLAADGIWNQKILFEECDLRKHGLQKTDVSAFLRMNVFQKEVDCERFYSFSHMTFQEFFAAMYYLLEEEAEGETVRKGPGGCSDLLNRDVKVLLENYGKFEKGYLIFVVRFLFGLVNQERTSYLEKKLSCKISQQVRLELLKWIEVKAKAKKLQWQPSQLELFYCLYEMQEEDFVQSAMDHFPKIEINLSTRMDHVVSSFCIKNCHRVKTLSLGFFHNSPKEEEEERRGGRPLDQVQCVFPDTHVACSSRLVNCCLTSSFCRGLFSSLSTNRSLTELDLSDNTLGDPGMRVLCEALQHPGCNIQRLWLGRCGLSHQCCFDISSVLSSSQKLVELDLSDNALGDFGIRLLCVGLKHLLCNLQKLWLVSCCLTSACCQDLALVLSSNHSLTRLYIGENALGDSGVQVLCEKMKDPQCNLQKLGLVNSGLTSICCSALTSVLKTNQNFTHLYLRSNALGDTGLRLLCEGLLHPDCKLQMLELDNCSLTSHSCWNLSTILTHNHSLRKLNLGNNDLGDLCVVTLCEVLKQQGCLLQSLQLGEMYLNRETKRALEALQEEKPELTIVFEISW
smiles,measurement,value
CC1=C(CC/C(C)=C/CCC2=CC[C@H](C3=CC(=O)O[C@H]3O)O[C@H]2O)C(C)(C)CCC1 [manoalide],DARTS (pronase protection) in BMDM lysates at 10 and 50 μM,Pronase-mediated degradation of NLRP3 is reversed in dose-dependent manner by manoalide.
